Data taken from US12344597B2, “Alkoxy-substituted pyridinyl derivatives as LPA1 receptor antagonists and their use in the treatment of fibrosis” (IDORSIA PHARMACEUTICALS LTD, priority 2018, dated 2025).
Where a name gives a salt, the structure may show the parent alone.

Biological target: human LPA1 receptor (Homo sapiens (Human), UniProt Q92633)
Experiment: Beta-arrestin recruitment assay to determine IC50 values for human LPAR1
Format: cell-based
Details: antagonist mode, Tango EDG2-bla U2OS cells, LPA 18:1 500 nM final
Summary of the method: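 Tango EDG2-bla U2OS cells: LPA-driven beta-arrestin/TEV protease recruitment releases Gal4-VP16, inducing beta-lactamase reporter read with live-cell substrate. Cells seeded 20 h at 37 °C beforehand. IC50 is antagonist concentration inhibiting 50% of maximal response.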

Sequence of human LPA1 receptor (Q92633 whole entry): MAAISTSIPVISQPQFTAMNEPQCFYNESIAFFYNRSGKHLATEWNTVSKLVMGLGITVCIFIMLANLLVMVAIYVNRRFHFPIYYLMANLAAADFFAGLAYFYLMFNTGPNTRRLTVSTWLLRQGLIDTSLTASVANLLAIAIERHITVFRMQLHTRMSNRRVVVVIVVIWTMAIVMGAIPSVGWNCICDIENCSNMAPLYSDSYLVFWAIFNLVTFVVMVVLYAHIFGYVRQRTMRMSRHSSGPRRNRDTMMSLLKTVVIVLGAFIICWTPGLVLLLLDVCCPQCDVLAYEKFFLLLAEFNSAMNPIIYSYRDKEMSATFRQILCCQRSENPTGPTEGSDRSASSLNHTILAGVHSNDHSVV

| Structure (SMILES) | IC50 [nM] |
| --- | --- |
| CCOC(=O)CN(C)CCN1CC(C(=O)Nc2ccc(C)nc2OC(F)F)(c2ccccc2C(C)C)C1 [Ex 11-81, Ethyl N-(2-(3-((2-(difluoromethoxy)-6-methylpyridin-3-yl)carbamoyl)-3-(2-isopropylphenyl)azetidin-1-yl)ethyl)-N-methylglycinate] | 88 |
| Cc1ccc(NC(=O)C2(c3ccccc3C(C)C)CN(CCC3(O)CC3)C2)c(OC(F)F)n1 [Ex 11-10, N-(2-(difluoromethoxy)-6-methylpyridin-3-yl)-1-(2-(1-hydroxycyclopropyl)ethyl)-3-(2-isopropylphenyl)azetidine-3-carboxamide] | 12 |
| Cc1ccc(NC(=O)C2(c3ccccc3C(C)C)CN(CC#N)C2)c(OC(F)F)n1 [Ex 11-88, 1-(cyanomethyl)-N-(2-(difluoromethoxy)-6-methylpyridin-3-yl)-3-(2-isopropylphenyl)azetidine-3-carboxamide] | 6 |
| Cc1ccc(NC(=O)C2(c3ccccc3C(C)C)CN(Cc3ccno3)C2)c(OC(F)F)n1 [Ex 11-36, N-(2-(difluoromethoxy)-6-methylpyridin-3-yl)-3-(2-isopropylphenyl)-1-(isoxazol-5-ylmethyl)azetidine-3-carboxamide] | 9 |
| COC(=O)c1ccc(CN2CC(C(=O)Nc3ccc(C)nc3OC(F)F)(c3ccccc3C(C)C)C2)cn1 [Ex 11-52, methyl 5-((3-((2-(difluoromethoxy)-6-methylpyridin-3-yl)carbamoyl)-3-(2-isopropylphenyl)azetidin-1-yl)methyl)picolinate] | 79 |
| CCOC(=O)COCCN1CC(C(=O)Nc2ccc(C)nc2OC(F)F)(c2ccccc2C(C)C)C1 [Ex 11-74, ethyl 2-(2-(3-((2-(difluoromethoxy)-6-methylpyridin-3-yl)carbamoyl)-3-(2-isopropylphenyl)azetidin-1-yl)ethoxy)acetate] | 28 |
| Cc1ccc(NC(=O)C2(c3ccccc3C(C)C)CN(C#N)C2)c(OC(F)F)n1 [Ex 11-6, 1-cyano-N-(2-(difluoromethoxy)-6-methylpyridin-3-yl)-3-(2-isopropylphenyl)azetidine-3-carboxamide] | 11 |
| Cc1ccc(NC(=O)C2(c3ccccc3C(C)C)CN(CC3(CO)COC3)C2)c(OC(F)F)n1 [Ex 11-89, N-(2-(difluoromethoxy)-6-methylpyridin-3-yl)-1-((3-(hydroxymethyl)oxetan-3-yl)methyl)-3-(2-isopropylphenyl)azetidine-3-carboxamide] | 73 |
| COC(=O)c1ccc(CN2CC(C(=O)Nc3ccc(C)nc3OC(F)F)(c3ccccc3C(C)C)C2)o1 [Ex 11-56, methyl 5-((3-((2-(difluoromethoxy)-6-methylpyridin-3-yl)carbamoyl)-3-(2-isopropylphenyl)azetidin-1-yl)methyl)furan-2-carboxylate] | 64 |
| CC(C)c1ccccc1C1(C(=O)Nc2cccnc2OC(F)F)CNC1 [Ex 7, N-(2-(difluoromethoxy)pyridin-3-yl)-3-(2-isopropylphenyl)azetidine-3-carboxamide hydrochloride] | 413 |
| COc1ccc(C(C)C)c(C2(C(=O)Nc3ccc(C)nc3OC(F)F)CNC2)c1 [Ex 38, N-(2-(difluoromethoxy)-6-methylpyridin-3-yl)-3-(2-isopropyl-5-methoxyphenyl)azetidine-3-carboxamide] | 287 |

Other lines, results leading:

| IC50 [nM] | Structure (SMILES) |
| --- | --- |
| 1760 | CCOC(=O)CC1(S(=O)(=O)N2CC(C(=O)Nc3ccc(C)nc3OC(F)F)(c3ccccc3C(C)C)C2)CC1 [Ex 13-13, ethyl 2-(1-((3-((2-(difluoromethoxy)-6-methylpyridin-3-yl)carbamoyl)-3-(2-isopropylphenyl)azetidin-1-yl)sulfonyl)cyclopropyl)acetate] |
| 10 | Cc1ccc(NC(=O)C2(c3ccccc3C(C)C)CN(C(=O)CNS(N)(=O)=O)C2)c(OC(F)F)n1 [Ex 12-128, N-(2-(difluoromethoxy)-6-methylpyridin-3-yl)-3-(2-isopropylphenyl)-1-(sulfamoylglycyl)azetidine-3-carboxamide] |
| 19 | Cc1ccc(NC(=O)C2(c3ccccc3C3CC3)CN(C(=O)CC(C)(C)C(=O)O)C2)c(OC(F)F)n1 [Ex 31-1, 4-(3-(2-cyclopropylphenyl)-3-((2-(difluoromethoxy)-6-methylpyridin-3-yl)carbamoyl)azetidin-1-yl)-2,2-dimethyl-4-oxobutanoic acid] |
| 5 | Cc1ccc(NC(=O)C2(c3c(F)cccc3C(C)C)CN(C(=O)CC(C)(C)C(=O)O)C2)c(OC(F)F)n1 [Ex 39-4, 4-(3-((2-(difluoromethoxy)-6-methylpyridin-3-yl)carbamoyl)-3-(2-fluoro-6-isopropylphenyl)azetidin-1-yl)-2,2-dimethyl-4-oxobutanoic acid] |
| 110 | C=C(CC(=O)OC)C(=O)N1CC(C(=O)Nc2ccc(C)nc2OC(F)F)(c2ccccc2C(C)C)C1 [Ex 12-92, methyl 3-(3-((2-(difluoromethoxy)-6-methylpyridin-3-yl)carbamoyl)-3-(2-isopropylphenyl)azetidine-1-carbonyl)but-3-enoate] |
| 222 | Cc1ccc(NC(=O)C2(c3ccccc3C(C)C)CN(C(=O)CCn3cnnc3)C2)c(OC(F)F)n1 [Ex 12-28, 1-(3-(4H-1,2,4-triazol-4-yl)propanoyl)-N-(2-(difluoromethoxy)-6-methylpyridin-3-yl)-3-(2-isopropylphenyl)azetidine-3-carboxamide] |
| 54 | Cc1ccc(NC(=O)C2(c3ccccc3C(C)C)CN(C(=O)C[C@@H](O)CC(=O)O)C2)c(OC(F)F)n1 [Ex 12-105, (R)-5-(3-((2-(difluoromethoxy)-6-methylpyridin-3-yl)carbamoyl)-3-(2-isopropylphenyl)azetidin-1-yl)-3-hydroxy-5-oxopentanoic acid] |
| 2 | Cc1ccc(NC(=O)C2(c3ccccc3C(C)C)CCN(C(=O)Cn3cnnn3)CC2)c(OC(F)F)n1 [Ex 12-20, 1-(2-(1H-tetrazol-1-yl)acetyl)-N-(2-(difluoromethoxy)-6-methylpyridin-3-yl)-4-(2-isopropylphenyl)piperidine-4-carboxamide] |
| 35 | Cc1ccc(NC(=O)C2(c3ccccc3C(C)C)CN(C(=O)CCC(=O)NS(C)(=O)=O)C2)c(OC(F)F)n1 [Ex 12-119, N-(2-(difluoromethoxy)-6-methylpyridin-3-yl)-3-(2-isopropylphenyl)-1-(4-(methylsulfonamido)-4-oxobutanoyl)azetidine-3-carboxamide] |
| 10 | Cc1ccc(NC(=O)C2(c3ccccc3C(C)C)CN(S(=O)(=O)CCC(=O)OCc3ccccc3)C2)c(OC(F)F)n1 [Ex 13-4, Benzyl 3-((3-((2-(difluoromethoxy)-6-methylpyridin-3-yl)carbamoyl)-3-(2-isopropylphenyl)azetidin-1-yl)sulfonyl)propanoate] |
| 51 | CC(C)c1ccccc1C1(C(=O)Nc2cccnc2OC(F)F)CN(C(=O)CC(C)(C)C(=O)O)C1 [Ex 12-84, 4-(3-((2-(difluoromethoxy)pyridin-3-yl)carbamoyl)-3-(2-isopropylphenyl)azetidin-1-yl)-2,2-dimethyl-4-oxobutanoic acid] |
| 25 | Cc1ccc(NC(=O)C2(c3ccccc3C(C)C)CN(C(=O)CC3(N)COC3)C2)c(OC(F)F)n1 [Ex 12-38, 1-(2-(3-aminooxetan-3-yl)acetyl)-N-(2-(difluoromethoxy)-6-methylpyridin-3-yl)-3-(2-isopropylphenyl)azetidine-3-carboxamide] |
| 18 | Cc1ccc(NC(=O)C2(c3ccccc3C(C)C)CN(C(=O)CN(C)CC(=O)O)C2)c(OC(F)F)n1 [Ex 12-142, N-(2-(3-((2-(difluoromethoxy)-6-methylpyridin-3-yl)carbamoyl)-3-(2-isopropylphenyl)azetidin-1-yl)-2-oxoethyl)-N-methylglycine] |
| 4 | COC(=O)CCC(=O)N1CCC(C(=O)Nc2ccc(C)nc2OC(F)F)(c2ccccc2C(C)C)CC1 [Ex 12-72, methyl 4-(4-((2-(difluoromethoxy)-6-methylpyridin-3-yl)carbamoyl)-4-(2-isopropylphenyl)piperidin-1-yl)-4-oxobutanoate] |
| 11 | Cc1ccc(NC(=O)C2(c3ccccc3C(C)C)CN(S(=O)(=O)NC3CC3)C2)c(OC(F)F)n1 [Ex 15-13, 1-(N-cyclopropylsulfamoyl)-N-(2-(difluoromethoxy)-6-methylpyridin-3-yl)-3-(2-isopropylphenyl)azetidine-3-carboxamide] |
| 75 | COC(=O)CCC(=O)N1CC(C(=O)Nc2ccc(C)nc2OC(C)C)(c2ccccc2C(C)C)C1 [Ex 12-67, methyl 4-(3-((2-isopropoxy-6-methylpyridin-3-yl)carbamoyl)-3-(2-isopropylphenyl)azetidin-1-yl)-4-oxobutanoate] |
| 204 | Cc1ccc(NC(=O)C2(c3ccccc3C(C)C)CN(C(=O)CC3CCN(CCF)CC3)C2)c(OC(F)F)n1 [Ex 12-141, N-(2-(difluoromethoxy)-6-methylpyridin-3-yl)-1-(2-(1-(2-fluoroethyl)piperidin-4-yl)acetyl)-3-(2-isopropylphenyl)azetidine-3-carboxamide] |
| 123 | COc1cc(Cl)cnc1NC(=O)C1(c2ccccc2C(C)C)CN(C(=O)CC(C)(C)C(=O)O)C1 [Ex 79-4, 4-(3-((5-chloro-3-methoxypyridin-2-yl)carbamoyl)-3-(2-isopropylphenyl)azetidin-1-yl)-2,2-dimethyl-4-oxobutanoic acid] |
| 56 | Cc1ccc(NC(=O)C2(c3ccccc3C(C)C)CN(C(=O)CC3(C(=O)O)CCN(C)CC3)C2)c(OC(F)F)n1 [Ex 12-124, 4-(2-(3-((2-(difluoromethoxy)-6-methylpyridin-3-yl)carbamoyl)-3-(2-isopropylphenyl)azetidin-1-yl)-2-oxoethyl)-1-methylpiperidine-4-carboxylic acid] |
| 61 | Cc1ccc(NC(=O)C2(c3ccccc3C(C)C)CN(C(=O)C[C@@H]3COCCN3)C2)c(OC(F)F)n1 [Ex 12-45, (R)-N-(2-(difluoromethoxy)-6-methylpyridin-3-yl)-3-(2-isopropylphenyl)-1-(2-(morpholin-3-yl)acetyl)azetidine-3-carboxamide] |
